Experimental data from patent US9051330B2, “Dithiolopyrrolones with therapeutic activity” (Welichem Biotech Inc., priority 2002, dated 2015).
pIC50: −log10 of the molar value. Where two headings read alike, the source gives them in different places.

Key:
Assay type in all cases: cell-based, human
H460 = assay: NCI standard anti-proliferative test, H460 cells
Ovcar-3 cell line = assay: NCI standard anti-proliferative test, ovarian cancer Ovcar-3 cells
Text: (§1) These assays are commonly used by those skilled in the art and are accepted as indicative of antiproliferative activity in mammals. The antiproliferative activities of the compounds of the invention have been determined in cell cultures of human ovarian cancer, using a standard anti-proliferative test of the US National Cancer Institute (NCI). [Monks, A. et al., J. Natl. Cancer Inst. 83(11): 757-766, 1991].
The novel compound had activity against 56 cancer cell lines of a wide range of major cancers. (Table 1a).

SN12C = assay: NCI anti-proliferative test, Renal Cancer SN12C
RXF 393 = assay: NCI anti-proliferative test, Renal Cancer RXF 393
U251 = assay: NCI anti-proliferative test, CNS Cancer U251
RPMI-8226 = assay: NCI anti-proliferative test, Leukemia RPMI-8226
COLO 205 = assay: NCI anti-proliferative test, Colon Cancer COLO 205
SNB-19 = assay: NCI anti-proliferative test, CNS Cancer SNB-19
OVCAR-5 = assay: NCI anti-proliferative test, Ovarian Cancer OVCAR-5
Text: as §1

MCF7 = assay: NCI anti-proliferative test, Breast Cancer MCF7
HOP-62 = assay: NCI anti-proliferative test, Non-Small Cell Lung Cancer HOP-62
SF-295 = assay: NCI anti-proliferative test, CNS Cancer SF-295
TK-10 = assay: NCI anti-proliferative test, Renal Cancer TK-10
SF-268 = assay: NCI anti-proliferative test, CNS Cancer SF-268
EKVX = assay: NCI anti-proliferative test, Non-Small Cell Lung Cancer EKVX
NCI-H322M = assay: NCI anti-proliferative test, Non-Small Cell Lung Cancer NCI-H322M
NCI-H226 = assay: NCI anti-proliferative test, Non-Small Cell Lung Cancer NCI-H226
OVCAR-8 = assay: NCI anti-proliferative test, Ovarian Cancer OVCAR-8
Text: as §1

UACC-257 = assay: NCI anti-proliferative test, Melanoma UACC-257
M14 = assay: NCI anti-proliferative test, Melanoma M14
SK-MEL-5 = assay: NCI anti-proliferative test, Melanoma SK-MEL-5
K-562 = assay: NCI anti-proliferative test, Leukemia K-562
PC-3 = assay: NCI anti-proliferative test, Prostate Cancer PC-3
LOX IMVI = assay: NCI anti-proliferative test, Melanoma LOX IMVI
HCC-2998 = assay: NCI anti-proliferative test, Colon Cancer HCC-2998
NCI/ADR-RES = assay: NCI anti-proliferative test, Breast Cancer NCI/ADR-RES
MALME-3M = assay: NCI anti-proliferative test, Melanoma MALME-3M
SR = assay: NCI anti-proliferative test, Leukemia SR
HT29 = assay: NCI anti-proliferative test, Colon Cancer HT29
HS 578T = assay: NCI anti-proliferative test, Breast Cancer HS 578T
IGROV1 = assay: NCI anti-proliferative test, Ovarian Cancer IGROV1
Text: as §1

MDA-MB-435 = assay: NCI anti-proliferative test, Breast Cancer MDA-MB-435
HCT-15 = assay: NCI anti-proliferative test, Colon Cancer HCT-15
UACC-62 = assay: NCI anti-proliferative test, Melanoma UACC-62
A498 = assay: NCI anti-proliferative test, Renal Cancer A498
SF-539 = assay: NCI anti-proliferative test, CNS Cancer SF-539
UO-31 = assay: NCI anti-proliferative test, Renal Cancer UO-31
SW-620 = assay: NCI anti-proliferative test, Colon Cancer SW-620
SK-MEL-28 = assay: NCI anti-proliferative test, Melanoma SK-MEL-28
DU-145 = assay: NCI anti-proliferative test, Prostate Cancer DU-145
MOLT-4 = assay: NCI anti-proliferative test, Leukemia MOLT-4
CCRF-CEM = assay: NCI anti-proliferative test, Leukemia CCRF-CEM
HCT-116 = assay: NCI anti-proliferative test, Colon Cancer HCT-116
HL-60(TB) = assay: NCI anti-proliferative test, Leukemia HL-60(TB)
786-0 = assay: NCI anti-proliferative test, Renal Cancer 786-0
MDA-MB-231/ATCC = assay: NCI anti-proliferative test, Breast Cancer MDA-MB-231/ATCC
CAKI-1 = assay: NCI anti-proliferative test, Renal Cancer CAKI-1
A549/ATCC = assay: NCI anti-proliferative test, Non-Small Cell Lung Cancer A549/ATCC
HOP-92 = assay: NCI anti-proliferative test, Non-Small Cell Lung Cancer HOP-92
KM12 = assay: NCI anti-proliferative test, Colon Cancer KM12
T-47D = assay: NCI anti-proliferative test, Breast Cancer T-47D
NCI-H522 = assay: NCI anti-proliferative test, Non-Small Cell Lung Cancer NCI-H522
BT-549 = assay: NCI anti-proliferative test, Breast Cancer BT-549
NCI-H23 = assay: NCI anti-proliferative test, Non-Small Cell Lung Cancer NCI-H23
ACHN = assay: NCI anti-proliferative test, Renal Cancer ACHN
SK-MEL-2 = assay: NCI anti-proliferative test, Melanoma SK-MEL-2
[1] = cancer cell line H460, read-out: IC50 H460
[2] = ovarian cancer cells Ovcar-3, comparison with XN3

SMILES: COc1ccc(-n2c3cssc-3c(NC(=O)CCC(=O)O)c2=O)c(OC)c1 [BLI-031-2]
- pIC50 (H460; [1]): < 4.30

SMILES: COc1ccc(-n2c3cssc-3c(NC(=O)c3ccc(C(F)(F)F)cc3)c2=O)c(OC)c1 [BLI-093]
- pIC50 (Ovcar-3 cell line; [2]): 7.27

SMILES: COc1ccc(-n2c3cssc-3c(NC(=O)Cc3cccs3)c2=O)c(OC)c1 [Compound 0037]
- pIC50 (Ovcar-3 cell line; [2]): 7.15

SMILES: COc1ccc(-n2c3cssc-3c(NC(=O)c3ccc([N+](=O)[O-])cc3)c2=O)c(OC)c1 [Compound 0038]
- pIC50 (Ovcar-3 cell line; [2]): 7.17

SMILES: COc1ccc(-n2c3cssc-3c(NC(=O)c3cc(C(F)(F)F)cc(C(F)(F)F)c3)c2=O)c(OC)c1 [Compound 0058]
- pIC50 (SN12C): 6.92
- pIC50 (RXF 393): 7.40
- pIC50 (U251): 6.82
- pIC50 (RPMI-8226): > 8.00
- pIC50 (COLO 205): 6.82
- pIC50 (SNB-19): 6.64
- pIC50 (OVCAR-5): 6.35
- pIC50 (MCF7): 6.77
- pIC50 (HOP-62): 6.89
- pIC50 (SF-295): 6.64
- pIC50 (TK-10): 5.86
- pIC50 (SF-268): 6.85
- pIC50 (EKVX): 6.89
- pIC50 (NCI-H322M): 5.07
- pIC50 (NCI-H226): 6.57
- pIC50 (OVCAR-8): 6.77
- pIC50 (UACC-257): 6.82
- pIC50 (M14): 6.62
- pIC50 (H460; Non-Small Cell Lung Cancer, NCI-H460, 56 cell line panel, read-out: IC50): 6.59
- pIC50 (SK-MEL-5): 6.92
- pIC50 (K-562): 7.72
- pIC50 (PC-3): 7.40
- pIC50 (LOX IMVI): 7.85
- pIC50 (HCC-2998): 6.96
- pIC50 (NCI/ADR-RES): 5.98
- pIC50 (MALME-3M): 6.72
- pIC50 (SR): 7.70
- pIC50 (HT29): 7.30
- pIC50 (HS 578T): 6.66
- pIC50 (IGROV1): 6.77
- pIC50 (MDA-MB-435): 6.66
- pIC50 (HCT-15): 7.70
- pIC50 (UACC-62): 6.72
- pIC50 (A498): 6.72
- pIC50 (SF-539): 6.74
- pIC50 (UO-31): 6.70
- pIC50 (SW-620): 7.47
- pIC50 (SK-MEL-28): 7.80
- pIC50 (DU-145): 7.89
- pIC50 (MOLT-4): 6.82
- pIC50 (Ovcar-3 cell line; Ovarian Cancer, OVCAR-3, 56 cell line panel): 7.52
- pIC50 (Ovcar-3 cell line; [2]): 7.47
- pIC50 (CCRF-CEM): > 8.00
- pIC50 (HCT-116): 7.80
- pIC50 (HL-60(TB)): 7.72
- pIC50 (786-0): 7.22
- pIC50 (MDA-MB-231/ATCC): 6.89
- pIC50 (CAKI-1): 6.36
- pIC50 (A549/ATCC): 6.38
- pIC50 (HOP-92): 6.74
- pIC50 (KM12): 5.53
- pIC50 (T-47D): 7.89
- pIC50 (NCI-H522): 6.72
- pIC50 (BT-549): 6.82
- pIC50 (NCI-H23): 6.68
- pIC50 (ACHN): 6.85
- pIC50 (SK-MEL-2): 6.74

SMILES: COc1ccc(-n2c3cssc-3c(NC(=O)c3ccc(CN4CCNCC4)cc3)c2=O)c(OC)c1 [Compound 0069]
- pIC50 (H460; [1]): 7.40

SMILES: COc1ccc(-n2c3cssc-3c(NC(=O)c3cc(F)cc(F)c3)c2=O)c(OC)c1 [Compound R3]
- pIC50 (Ovcar-3 cell line; [2]): 7.11

SMILES: COc1ccc(-n2c3cssc-3c(NC(=O)c3ccc(F)c(F)c3F)c2=O)c(OC)c1 [Compound R4]
- pIC50 (Ovcar-3 cell line; [2]): 7.34

SMILES: COc1ccc(-n2c3cssc-3c(NC(=O)c3cccs3)c2=O)c(OC)c1 [WBL-007]
- pIC50 (Ovcar-3 cell line; [2]): 7.55

SMILES: COc1ccc(-n2c3cssc-3c(NC(=O)c3ccc(F)cc3)c2=O)c(OC)c1 [WBL-018]
- pIC50 (Ovcar-3 cell line; [2]): 7.15
